Compound: Cn1cncc1[C@@](N)(c1ccc(Cl)cc1)c1ccc2c(c1)c(-c1cccc(Cl)c1)cc(=O)n2C [Tipifarnib]
Assay: relative viability (nuclei count vs DMSO), 5 days (fraction); higher = more cells survive
How it was run: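 Five library-drug doses, separated by factors of √10, were pinned into 1536-well plates holding lung cancer cell lines after an overnight stay at 37 °C. Cells were fixed, permeabilised and Hoechst-stained in one step after 5 days without medium change, then imaged at 4×. Viability compares treated-well with vehicle-well nuclei, counted in MetaXpress, as a median across plates. Passing plates had control CV below 25% and at least one doubling.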

| Cell Line | relative viability (0.01 µM) | relative viability (0.03162 µM) | relative viability (0.1 µM) | relative viability (0.3162 µM) | relative viability (1 µM) |
| --- | --- | --- | --- | --- | --- |
| NCI-H441 | 1.33 | 0.751 | 0.718 | 0.568 | 0.393 |
| NCI-H1793 | 0.981 | 0.802 | 0.869 | 0.448 | 0.462 |
| NCI-H23 | 1.09 | 0.767 | 0.765 | 0.539 | 0.337 |
| HARA | 1.14 | 1.03 | 1.04 | 0.826 | 0.348 |
| NCI-H1792 | 0.952 | 0.715 | 0.706 | 0.25 | 0.238 |
| NCI-H1703 | 0.853 | 0.75 | 0.287 | 0.33 | 0.344 |
| NCI-H2342 | 1.06 | 0.984 | 0.749 | 0.807 | 0.571 |
| CAL-12T | 0.937 | 0.82 | 0.617 | 0.549 | 0.391 |
| NCI-H727 | 1.16 | 1.11 | 0.876 | 0.685 | 0.645 |
| NCI-H2085 | 1.04 | 0.82 | 0.708 | 0.661 | 0.723 |
| NCI-H1395 | 0.808 | 0.823 | 0.659 | 0.606 | 0.492 |
| NCI-H1648 | 1.03 | 0.761 | 0.896 | 0.651 | 0.58 |
| NCI-H460 | 0.989 | 0.963 | 0.727 | 0.538 | 0.149 |
| A549 | 1.01 | 0.853 | 0.563 | 0.417 | 0.251 |
| IA-LM | 0.426 | 0.529 | 0.376 | 0.185 | 0.184 |
| EKVX | 1.07 | 0.954 | 0.901 | 0.807 | 0.531 |
| ChaGo-K-1 | 0.993 | 1.02 | 1.08 | 0.928 | 0.547 |
| NCI-H1755 | 1.02 | 1 | 0.976 | 0.955 | 0.826 |
| NCI-H2228 | 1.06 | 0.844 | 0.687 | 0.606 | 0.553 |

| Cell Line | relative viability (0.01 µM) | relative viability (0.03162 µM) | relative viability (0.1 µM) | relative viability (0.3162 µM) | relative viability (1 µM) |
| --- | --- | --- | --- | --- | --- |
| NCI-H2087 | 0.849 | 0.405 | 0.332 | 0.329 | 0.401 |
| LU99A | 1 | 0.836 | 0.643 | 0.556 | 0.394 |
| NCI-H1355 | 1.04 | 0.852 | 0.68 | 0.675 | 0.607 |
| NCI-H520 | 1.02 | 0.9 | 0.947 | 0.658 | 0.504 |
| NCI-H661 | 1.03 | 1.02 | 0.934 | 0.905 | 0.849 |
| NCI-H650 | 0.855 | 0.922 | 0.733 | 0.695 | 0.368 |
| NCI-H647 | 0.883 | 0.807 | 0.727 | 0.404 | 0.196 |
| 201T | 0.999 | 1.02 | 0.932 | 0.893 | 0.669 |
| NCI-H838 | 0.9 | 0.892 | 0.741 | 0.722 | 0.621 |
| SW 1573 | 0.965 | 0.603 | 0.477 | 0.42 | 0.357 |
| PC-14 | 0.9 | 0.695 | 0.481 | 0.32 | 0.263 |
| LK-2 | 1.03 | 0.857 | 0.809 | 0.615 | 0.607 |
| COR-L23 | 1.04 | 0.803 | 0.681 | 0.622 | 0.467 |
| NCI-H1944 | 0.886 | 0.65 | 0.514 | 0.437 | 0.429 |
| HCC-78 | 1 | 0.948 | 0.808 | 0.768 | 0.633 |
| NCI-H2405 | 1.03 | 0.984 | 0.928 | 0.954 | 0.735 |
| SK-LU-1 | 1.03 | 0.778 | 0.711 | 0.536 | 0.634 |
| EMC-BAC-2 | 0.997 | 0.936 | 0.82 | 0.809 | 0.529 |
| NCI-H1650 | 0.68 | 0.486 | 0.553 | 0.453 | 0.374 |
